# Results reported in patent US20080274076A1, “Composition for Use in Controlling Aedes Aegypti Mosquitoes” (priority 2005, published 2008).
# Assays:
# Aedes aegypti mosquitoes [1] = test: oviposition attractant effect of semio-chemicals identified in larval conditioned water; format: in vivo
# Source text: The present invention also relates to a process for the preparation of compositions for use in lure and/or killing of Aedes aegypti mosquitoes. The present invention is based on the unexpected finding that Aedes aegypti mosquitoes tend to lay eggs in stagnant water where eggs of the same species of mosquitoes had been laid previously. This led the inventors to analyse various samples of water which in turn led to the finding that water in which eggs had previously been laid by Aedes aegypti mosquitoes and which had hatched into larval stage contained various semio-chemicals. Analysis of these semio-chemicals identified them as heneicosane, nonacosane, octadecane, isopropyl myristate and docosane. […] When, stagnant water in which Aedes aegypti mosquitoes had bred earlier was left untouched the incidence of further egg laying in the same water and thriving of larval population increased. […]
# Aedes aegypti mosquitoes are bred and the water is collected for isolation where the mosquitoes are at larval stage. […] The extractant is analysed by various spectral techniques like IR, NMR and GCMS and the five semio-chemicals identified are heneicosane, nonacosane, octadecane, isopropyl myristate and decosane.
# Aedes aegypti mosquitoes [2] = test: field test of the luring effect: open water tanks, one treated with heneicosane solution; format: in vivo
# Protocol: Fifteen open tanks with water filled to the top were kept in the open. All the tanks were made of same material, were of the same size and contained same amount of water from the same source. The tanks were numbered consecutively and allowed to remain for a week.
# All the fifteen tanks were drained of water and thoroughly cleaned. Subsequently, they were filled with water from the same source. In tank No. 1, a predetermined amount of a solution of heneicosane in n-hexane (1% w/v) was added. After fifteen days, water from each tank was analysed.
# Example No. 4 was repeated 14 times with heneicosane being added in tank Nos. 2 to 15 consequentially.
# Example Nos. 4 and 5 were repeated with heneicosane dissolved in n-pentane.
# The above example was repeated with varying concentrations of heneicosane in the solvent.
structure (smiles),measurement,setting,value
"CCCCCCCCCCCCCCCCCCCCC [heneicosane, n-heneicosane]",effectiveness as oviposition attractant among the five identified semio-chemicals,"Aedes aegypti mosquitoes [1]; compared with nonacosane, octadecane, isopropyl myristate and docosane",most effective oviposition attractant
same,"site of egg laying, stagnant water versus water containing heneicosane",Aedes aegypti mosquitoes [1]; stagnant water kept alongside water containing heneicosane,the entire egg laying took place only in water containing heneicosane
same,attraction of mosquitoes to lay eggs in the treated tank,Aedes aegypti mosquitoes [2]; Example 4 repeated 14 times with heneicosane added in tank Nos. 2 to 15 consequentially,each time the tank containing heneicosane attracted Aedes aegypti mosquitoes to lay their eggs therein
same,luring result with another solvent,Aedes aegypti mosquitoes [2]; Example Nos. 4 and 5 repeated with heneicosane dissolved in n-pentane,The results were exactly the same
same,mosquito larvae found in tanks (egg laying lured to treated tank),"Aedes aegypti mosquitoes [2]; field conditions, 15 open tanks, solution of heneicosane in n-hexane (1% w/v) added to tank No. 1, after fifteen days",only tank No. 1 containing the heneicosane contained mosquito larvae
